In brackets after ≈: the same amount, converted by molar mass.
Key:
[1] = test system: Mycobacterium tuberculosis; experiment: Antimycobacterial activity against Mycobacterium tuberculosis H37Rv ATCC 27294 incubated for 5 days by microplate alamar blue assay; assay type: functional; conditions: H37Rv ATCC 27294, 120 h
[2] = Cytotoxicity against African green monkey Vero cells assessed as reduction in cell viability after 72 hrs by MTT assay; assay type: cell-based; conditions: chlorocebus sabaeus
[3] = Selectivity index, ratio of CC50 for African green monkey Vero cells to MIC for Mycobacterium tuberculosis H37Rv ATCC 27294; assay type: toxicity, cell-based; conditions: read-out: Selectivity Index

Row | SMILES | MIC [1] [µg/mL] | CC50 at 72 h [2] [µg/mL] | selectivity ratio [3]
1 | Cc1c(C(=O)CSCCNC(=O)c2cccs2)[n+]([O-])c2ccccc2[n+]1[O-] | 6.25 (≈ 15.5 µM) | > 100 | > 16
2 | Cc1c(C(=O)CSc2nc[nH]n2)[n+]([O-])c2ccccc2[n+]1[O-] | 0.39 (≈ 1.23 µM) | 50 (≈ 158 µM) | 128
3 | CC(=O)NCCSCC(=O)c1c(C)[n+]([O-])c2ccccc2[n+]1[O-] | 50 (≈ 149 µM) |  | 
4 | Cc1c(C(=O)CSc2ccc(F)cc2)[n+]([O-])c2ccccc2[n+]1[O-] | 0.39 (≈ 1.13 µM) | 50 (≈ 145 µM) | 128
5 | Cc1c(C(=O)CN(C)C2CCCCC2)[n+]([O-])c2ccccc2[n+]1[O-] | 50 (≈ 152 µM) |  | 
6 | Cc1ccc(SCC(=O)c2c(C)[n+]([O-])c3ccccc3[n+]2[O-])cc1 | 0.78 (≈ 2.29 µM) | 50 (≈ 147 µM) | 64
7 | Cc1c(C(=O)CSCCNC(=O)C2CCCCC2)[n+]([O-])c2ccccc2[n+]1[O-] | 12.5 (≈ 31 µM) |  | 
8 | Cc1c(C(=O)CSc2nc3ccccc3o2)[n+]([O-])c2ccccc2[n+]1[O-] | 3.13 (≈ 8.52 µM) | 50 (≈ 136 µM) | 16
9 | COc1ccc(SCC(=O)c2c(C)[n+]([O-])c3ccccc3[n+]2[O-])cc1 | 0.78 (≈ 2.19 µM) | 50 (≈ 140 µM) | 64
10 | Cc1c(C(=O)CN(C)c2ccc(F)cc2)[n+]([O-])c2ccccc2[n+]1[O-] | 6.25 (≈ 18.3 µM) | > 100 | > 16
11 | Cc1c(C(=O)CSCCNC(=O)c2ccc3ccccc3c2)[n+]([O-])c2ccccc2[n+]1[O-] | 6.25 (≈ 14 µM) | > 100 | > 16
12 | Cc1c(C(=O)CSCCNC(=O)c2ccncc2)[n+]([O-])c2ccccc2[n+]1[O-] | 6.25 (≈ 15.7 µM) | 50 (≈ 125 µM) | 
13 | Cc1c(C(=O)CSCCO)[n+]([O-])c2ccccc2[n+]1[O-] | 50 (≈ 170 µM) |  | 
14 | Cc1c(C(=O)CSCCN)[n+]([O-])c2ccccc2[n+]1[O-] | 50 (≈ 170 µM) |  | 
15 | Cc1c(C(=O)CNc2nc3ccccc3[nH]2)[n+]([O-])c2ccccc2[n+]1[O-] | 12.5 (≈ 35.8 µM) |  | 
16 | Cc1c(C(=O)CSc2nc3ccccc3s2)[n+]([O-])c2ccccc2[n+]1[O-] | 1.56 (≈ 4.07 µM) | 50 (≈ 130 µM) | 32
17 | Cc1c(C(=O)CSCCNC(=O)c2ccc(F)cc2)[n+]([O-])c2ccccc2[n+]1[O-] | 1.56 (≈ 3.76 µM) | > 100 | > 128

Row | SMILES | MIC [1] [µg/mL] | CC50 at 72 h [2] [µg/mL] | selectivity ratio [3]
18 | Cc1c(C(=O)CSc2nccs2)[n+]([O-])c2ccccc2[n+]1[O-] | 3.13 (≈ 9.39 µM) | 50 (≈ 150 µM) | 16
19 | Cc1ccc(N(C)CC(=O)c2c(C)[n+]([O-])c3ccccc3[n+]2[O-])cc1 | 25 (≈ 74.1 µM) |  | 
20 | Cc1c(C(=O)CSc2ccccc2)[n+]([O-])c2ccccc2[n+]1[O-] | 1.56 (≈ 4.78 µM) | 50 (≈ 153 µM) | 32
21 | COc1ccc(C(=O)NCCSCC(=O)c2c(C)[n+]([O-])c3ccccc3[n+]2[O-])cc1 | 3.13 (≈ 7.32 µM) | > 100 | > 32
22 | CCN(CC)CC(=O)c1c(C)[n+]([O-])c2ccccc2[n+]1[O-] | 50 (≈ 173 µM) |  | 
23 | Cc1c(C(=O)CN2CCN(C)CC2)[n+]([O-])c2ccccc2[n+]1[O-] | 50 (≈ 158 µM) |  | 
24 | Cc1c(C(=O)CNc2nccs2)[n+]([O-])c2ccccc2[n+]1[O-] | 50 (≈ 158 µM) |  | 
25 | Cc1c(C(=O)CSCCNC(=O)[C@@H](N)Cc2ccc(O)cc2)[n+]([O-])c2ccccc2[n+]1[O-] | 25 (≈ 54.8 µM) |  | 
26 | Cc1c(C(=O)CN(C)c2ccccc2)[n+]([O-])c2ccccc2[n+]1[O-] | 25 (≈ 77.3 µM) |  | 
27 | Cc1c(C(=O)CSc2nc3ccccc3[nH]2)[n+]([O-])c2ccccc2[n+]1[O-] | 6.25 (≈ 17.1 µM) | 100 (≈ 273 µM) | 16
28 | Cc1c(C(=O)CSCCNC(=O)[C@@H](N)Cc2c[nH]c3ccccc23)[n+]([O-])c2ccccc2[n+]1[O-] | 6.25 (≈ 13 µM) | > 100 | > 16
29 | Cc1c(C(=O)CSCCNC(=O)c2ccccc2)[n+]([O-])c2ccccc2[n+]1[O-] | 6.25 (≈ 15.7 µM) | > 100 | > 16
30 | Cc1c(C(=O)CN2CCCCC2)[n+]([O-])c2ccccc2[n+]1[O-] | 25 (≈ 83 µM) |  | 
31 | Cc1c(C(=O)CSCCNC(=O)[C@@H](N)C(C)C)[n+]([O-])c2ccccc2[n+]1[O-] | 25 (≈ 63.7 µM) |  | 
32 | Cc1c(C(=O)CN(C)Cc2ccccc2)[n+]([O-])c2ccccc2[n+]1[O-] | 50 (≈ 148 µM) |  | 
33 | COc1cc(C(=O)NCCSCC(=O)c2c(C)[n+]([O-])c3ccccc3[n+]2[O-])cc(OC)c1OC | 25 (≈ 51.3 µM) |  | 
34 | NNC(=O)c1ccncc1 [ISONIAZID] | 0.2 (≈ 1.46 µM) |  | 
